# Measurements published in ChEMBL document CHEMBL3507680, “University of Dundee, Gates Library screen for HepG2 cell viability”.
# Experiment: Human HepG2 cell viability assay in 384 well format
# Assay type: toxicity, cell-based
# Parameters: dose 125 nL, time 70.5 hour; cytotoxicity at 70.5 h: concentration not given beside the values
# Conditions: HepG2 cells, read-out: Inhibition
row,SMILES,cytotoxicity at 70.5 h [%]
1,N#Cc1ccc2c(c1)CN(C(=O)c1nc[nH]n1)C2c1cnco1 (stereo unspecified),-2.48
2,Cc1ccccc1CN1CC[C@H](c2nnc(-c3cncn3C)o2)C1,1.18
3,CCc1nc2ccccc2n1C(CC)C(=O)N(C)Cc1nc(C)c[nH]1 (stereo unspecified),21.7
4,Cc1cnccc1-n1nc(C(C)C)nc1CCc1cnccn1,-19.8
5,CCS(=O)(=O)NC[C@]12COC[C@H]1CN(Cc1ccccn1)C2,-3.72
6,COc1ccc(-n2cccn2)c(CN2CCC(O)(CO)CC2)c1,-11.1
7,CCCOC(=O)C(C)Sc1nnnn1C1CCOCC1 (stereo unspecified),-2.83
8,CCCN(Cc1ccc(S(=O)(=O)NC)cc1)Cc1ccccc1OC,1.33
9,N#Cc1cn(C2CC2)c(=O)n(CC(O)c2ccc(Cl)cc2)c1=O (stereo unspecified),-3.7
10,CC(=O)N1[C@H](CN(C)C)C[C@@H]2CN(C(=O)c3cnc(C)cn3)CC[C@@H]21,-5.19
11,Cc1nc(C2CCCN(C(=O)c3scnc3C)C2)no1 (stereo unspecified),-7.6
12,O[C@@H]1C[C@@](CNCc2ccc(F)cc2)(COc2cccnc2)C[C@@H]1O,0.0431
13,CN(C)C(=O)N1CC[C@]2(O)CCN(C(=O)c3ccc(C#N)nc3)C[C@@H]2C1,3.74
14,CCc1nnc2n1CCN(Cc1csc(-c3cnn(C)c3)n1)C2,6.48
15,Cc1ccc(OCCn2cnc3oc(C)c(C(=O)O)c3c2=O)cc1,19.9
16,Cc1noc(CN2CC=C(c3cnn(C4CCS(=O)(=O)C4)c3)CC2)n1 (stereo unspecified),27.9
17,Cc1nc(CN2CCCC(CCc3ccccc3C(F)(F)F)C2)co1 (stereo unspecified),22.6
18,CC(C)OCc1ncn2c1CN(Cc1cccs1)CCC2,1.83
19,Cc1ccc(CN2C[C@@H]3CCN(Cc4cccnc4)C(=O)[C@H]3C2)s1,14.5
20,CC(O)C1CCN(Cc2cnc3c(-c4ccccc4)cnn3c2)CC1 (stereo unspecified),-7.53
21,O=C(CC1CC1)N1CCC2(COCc3cnc(-c4cccnc4)nc32)C1 (stereo unspecified),-2.06
22,CN(Cc1cnn(C)c1)C(=O)C1COc2ccccc2C1 (stereo unspecified),-5.03
23,Cc1n[nH]c(C2CN(C(=O)c3scnc3C)CCO2)n1 (stereo unspecified),-7.66

row,SMILES,cytotoxicity at 70.5 h [%]
1,CNc1nc(C)c(C(=O)N2CCCCC2CN2CCCCCC2)s1 (stereo unspecified),-17.9
2,Cc1cccc(CN2C[C@@H](NC(=O)C3CC3)[C@H]3OCCC[C@H]32)n1,4.63
3,CN(Cc1ccc2c(c1)OCCO2)Cc1nc2c(cnn2C)c(=O)[nH]1,-5.53
4,CC(CN1CCOCC1)N(Cc1ccccc1)Cc1ccncc1 (stereo unspecified),-6.88
5,CC(=O)N1CCC(n2ccc(-c3cnc(N4CCOCC4)nc3)n2)CC1,-5.97
6,Cc1ccc(NC2COC3(CCN(Cc4ccn(C)n4)CC3)C2)nn1 (stereo unspecified),-7.47
7,O=C(c1cnccn1)N1CCc2onc(CN3CCOCC3)c2C1,23.2
8,Cc1ccc(=O)n(CC(=O)N2CCCC(c3nc(C)c(C)s3)C2)n1 (stereo unspecified),-5.44
9,CNC(=O)CN1CC[C@H]2CN(C(=O)c3cc[nH]n3)C[C@H]2C1,-8.85
10,O=C(CC1CC1)NCc1cn2c(n1)CN(C(=O)C1CCOCC1)CC2,-4.63
11,COCC(=O)N1CC[C@@H](N2CCOCC2)[C@@H]1Cc1ccccc1,4.62
12,Cn1cc(C2CCCN2C(=O)CCn2ccc3ccccc32)cn1 (stereo unspecified),3.44
13,CC(C)(C)NC(=O)C[C@@H]1CCNC[C@@H]1Cc1cc(C(C)(C)C)on1,-1.48
14,Cc1ncsc1C(=O)NC1CCN(CC(=O)N(C)c2ccccc2)CC1,-1.98
15,O=c1[nH]c(C2CCOC2)nc2ccc(Br)cc12 (stereo unspecified),-2.39
16,Cn1ccnc1CN1CCC(F)(F)C2(CCN(c3cccnc3)C2)C1 (stereo unspecified),-8.56
17,Cc1ncsc1C(=O)NCCCN1CCCCCC1=O,-7.13
18,Nc1nc2c(c(NCc3ccncc3)n1)CCCC2,0.39
19,O=C(c1cc(-c2ccco2)nc2c(Cl)cccc12)N1CC[C@H]2CNC[C@H]21,19.8
20,O=C(NCc1cccnc1)N1CCSCC1CCO (stereo unspecified),13.2
21,CSc1ccc(C(CNC(=O)C2CC2)N2CCc3sccc3C2)cc1 (stereo unspecified),-2.83
22,CCOc1ccc(-c2c(C#N)c(N)nc3c2COCC3)cn1,-15
23,c1ccc2cc(OCCCN3CCn4c(nnc4C4CC4)C3)ccc2c1,-6.02

row,SMILES,cytotoxicity at 70.5 h [%]
1,CCn1c(C)nnc1SCCNc1nc(C)nc2ncccc12,-15.7
2,COc1ccccc1[C@@H]1CN(Cc2ccc3nsnc3c2)C[C@H]1C(=O)O,-5.24
3,COc1c(C)cnc(CN2CCOC(Cn3nc(C)nc3C)C2)c1C (stereo unspecified),-1.22
4,COCc1ncc(CN2CC(Oc3c(C)cccc3C)C2)cn1,-0.994
5,CC(C)(C)Cc1nnc(NCc2cccc(C#N)c2)o1,-1.69
6,CC(C)n1ccnc1Cn1ccc2ncccc2c1=O,-0.693
7,COc1c(CNC2CCOc3c(Cl)cccc32)c(C)nn1C (stereo unspecified),12.2
8,COC(=O)C(C)(C)NC(=O)c1scnc1Cl,0.537
9,COCCN1CCN(CC(=O)N(C)Cc2ccsc2)CC1,-6.03
10,CC(=O)N1CC(C)CN(C(=O)c2cscn2)c2ccccc21 (stereo unspecified),2.08
11,CC1CCCN(c2ncc(-c3ccccc3F)c(-c3nccn3C)n2)C1 (stereo unspecified),-12.5
12,Cn1cc(-c2cc(C(=O)N3CCOCC3)c3ccc(F)cc3n2)cn1,24.6
13,CO[C@@H]1CC[C@@H](NS(=O)(=O)c2cn(C)nc2C)[C@H]1O,-1.72
14,O=C(NCCCN1CCc2ccccc2C1)c1ccccc1Br,-7.72
15,CCn1c(CC2CCN(C(=O)c3cc(C(C)C)n[nH]3)CC2)n[nH]c1=O,-6.21
16,CCc1ncc(CN2CCN(c3cc(NC4CC4)nc(N)n3)CC2)cn1,-15
17,CCN1CCOCC12CCN(C(=O)C1CCC1)CC2,14.1
18,CCN1CC[C@@]2(C(=O)N(C)C)CCN(S(=O)(=O)c3ccccc3)CC[C@@H]12,-9.93
19,c1ccc(C2CCCCN2Cc2nc(-c3cnccn3)no2)nc1 (stereo unspecified),-1.69
20,Cc1nnc(N2C[C@H](C(=O)NCC3CC3)[C@@H]3CCO[C@@H]3C2)s1,-4
21,Cc1ccc2c(c1)C1(CCNCC1)CC2NC(C)C (stereo unspecified),-2.54
22,c1nc2n(c1CN1CCCC1)CCN(C1CCOCC1)CC2,-7.69
23,Cc1nc([C@H]2C[C@@H]3CCN(Cc4ccc5c(c4)OCO5)C[C@H]3O2)no1,-12.3

row,SMILES,cytotoxicity at 70.5 h [%]
1,Cc1nc(N2CCCN(c3ncccn3)CC2)c2cnn(C)c2n1,-3.77
2,O=C(Nc1ccccc1)c1ccc(NCc2ccccc2CO)nn1,-6.13
3,Cc1cc(=O)c(C(=O)N2CCC(C(O)Cc3ccccc3)CC2)c(C)[nH]1 (stereo unspecified),-14.4
4,COc1ccc2c(ccn2CCC(=O)Nc2ccc(C(N)=O)cc2)c1,-7.39
5,O=C(O)c1cc2c(nc1-c1ccoc1)CCN(Cc1ccco1)CC2,-14.2
6,FC1(F)CCN(Cc2ccncc2)CC12CCN(Cc1ccccn1)C2 (stereo unspecified),14.3
7,COc1ccc(Cn2c(Cc3c(C)n[nH]c3C)n[nH]c2=O)cc1,-12.9
8,Cc1ccccc1NC(=O)N1CC[C@@H]2CN(CC(C)C)S(=O)(=O)[C@@H]2CC1,-9.9
9,Cc1nnc(CN2CCCC(c3noc(C4CC4)n3)C2)o1 (stereo unspecified),-4.3
10,O=C(Cn1ccnc1)N1CCC(n2cc(-c3cccc(Cl)c3)nn2)CC1,22.5
11,CCN(C)c1ncnc2c1CCN(C(=O)Cc1ccccn1)CC2,-9.09
12,O=C(CC1CC1)N1CCC2(CC(=O)N(c3cccc(F)c3)C2)C1 (stereo unspecified),-6.99
13,CN1CCC2(CCN(S(=O)(=O)c3ccc(-c4cnco4)s3)CC2)C1,-8.53
14,CCN(CC(=O)NC)C(=O)c1sc(Cc2ccccc2)nc1C,-11.7
15,Cc1ccc(F)c(C(=O)N2CCN(S(C)(=O)=O)[C@@H](C)C2)c1,-3.67
16,CCn1nc(C)c2nc(C)nc(NC3CCCC3)c21,-7.43
17,CC(C)CCC(=O)Nc1ncn(CC(=O)N2CCCCCC2)n1,-2.61
18,CSc1ccc(CNC(c2ccc(F)cc2)c2nccn2C)cc1 (stereo unspecified),0.212
19,Cc1cnc2c(c1NCc1ccc3c(c1)OCO3)c(=O)n(C)c(=O)n2C,46.5
20,C1CCc2nnc(CNc3nc(C4CC4)nc4c3CCNCC4)n2CC1,-5.38
21,CCc1nc(C(=O)N2CCN(CC)CC2)nn1-c1ccccc1Cl,11.3
22,CC(C)(C)c1ccc(S(=O)(=O)CCNC(=O)c2cnccn2)cc1,10.2
23,Cc1cccc(C)c1OC1CN(C(=O)C2CCCN(C(=O)N(C)C)C2)C1 (stereo unspecified),-9.46

row,SMILES,cytotoxicity at 70.5 h [%]
1,COc1cc(OC)c2nc(NCCN3CCNC3=O)cc(C)c2c1,2.59
2,Cn1nc(Cn2cccn2)c2c1CN(C1CCOCC1)C2,-0.608
3,CN1CC(=O)N(c2cccnc2)CC12CCN(C(=O)C1CCCCC1)C2 (stereo unspecified),36.1
4,CC(=O)N1CCN(C(=O)NCCCc2cn[nH]c2C)CC1,-14.4
5,CCn1nc2c(cc1=O)CN(Cc1nc(C)c3ccccc3n1)CC2,-6.18
6,N#Cc1ncn(CC(=O)Nc2cc(Cl)ccc2F)n1,-3.28
7,Cc1cccc(C2(C(=O)NS(=O)(=O)c3cnn(C)c3)CCCC2)c1,-1.9
8,COc1ncccc1NC(=O)NC(CCCO)c1ccccc1 (stereo unspecified),11.2
9,Cc1ccc(CN2CCN(c3ccc(F)cn3)CC2=O)cc1C,-3.51
10,CC1CCN(C(=O)c2ccnc(-n3cncn3)c2)c2ccccc21 (stereo unspecified),13.2
11,Cc1noc(C)c1S(=O)(=O)N1CCC(n2cccn2)CC1,-5.3
12,CS(=O)(=O)N1CC2(CCN(C3COC3)C2)Cc2ccccc21 (stereo unspecified),-4.95
13,CC(C#N)CNS(=O)(=O)c1ccc(Br)c(F)c1 (stereo unspecified),-8.29
14,O=C(C1=CC2(CCNCC2)c2ccccc21)N1CCCC1,-14.7
15,COCCN(C)C(=O)Nc1ccc(C(=O)NCCC(=O)OC)cc1,-8.51
16,CC(C)CCN1CCc2nc(N3CCOCC3)nc(NC(C)C)c2C1,-16.5
17,CCCOc1ccc(NC(=O)NCCC(=O)N(C)C)cc1Cl,-4.39
18,CN(C)C(=O)CN1CCC2(C1)CN(CC1CCOC1)C2 (stereo unspecified),11.8
19,CC(C)OCCCNC(=O)CS(=O)(=O)Cc1ccc(C(C)C)cc1,-0.615
